Source: ChEMBL document CHEMBL4414605 (J Med Chem, 2019)

How the values were obtained:
[1] = target: T1, D(2) dopamine receptor (Homo sapiens, UniProt P14416)
Description: Displacement of PPHT-red from SNAP-tagged human D2LR expressed in CHOK1 cell membranes assessed as association rate constant by TR-FRET assay

[2] = target: T1, D(2) dopamine receptor; remark: listed apart in the source
Description: Displacement of PPHT-red from SNAP-tagged human D2LR expressed in CHOK1 cell membranes assessed as dissociation rate constant by TR-FRET assay

[3] = target: T1, D(2) dopamine receptor; remark: listed apart in the source
Description: Displacement of PPHT-red from SNAP-tagged human D2LR expressed in CHOK1 cell membranes assessed as dissociation half-life by TR-FRET assay

T1 sequence (P14416 whole entry): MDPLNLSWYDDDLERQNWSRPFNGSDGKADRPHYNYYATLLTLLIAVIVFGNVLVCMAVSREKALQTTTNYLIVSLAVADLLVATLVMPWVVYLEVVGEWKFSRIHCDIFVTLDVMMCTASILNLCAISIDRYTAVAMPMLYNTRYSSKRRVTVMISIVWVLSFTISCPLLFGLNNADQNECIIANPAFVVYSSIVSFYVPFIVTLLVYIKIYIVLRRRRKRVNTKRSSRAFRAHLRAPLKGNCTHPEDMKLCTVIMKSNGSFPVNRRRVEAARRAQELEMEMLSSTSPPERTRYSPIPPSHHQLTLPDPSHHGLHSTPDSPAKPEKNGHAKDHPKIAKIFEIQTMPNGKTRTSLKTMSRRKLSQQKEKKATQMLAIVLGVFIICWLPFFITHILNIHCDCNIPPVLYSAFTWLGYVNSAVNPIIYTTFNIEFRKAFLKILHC

Compound: O=C(CCCN1CCC(O)(c2ccc(Cl)cc2)CC1)c1cc(F)cc(F)c1
- Ka [1]: 4.25 ×10⁶ /M/min
- Kdiss [2]: 0.0153 s⁻¹
- T1/2 [3]: 47.4 s

Compound: COC1(c2ccc(Cl)cc2)CCN(CCCC(=O)c2ccc(F)cc2)CC1
- Ka [1]: 3.6 ×10⁸ /M/min
- Kdiss [2]: 0.0113 s⁻¹
- T1/2 [3]: 61.8 s

Compound: O=C(CCCN1CCC(O)(c2cccc(Cl)c2)CC1)c1ccc(F)cc1
- Ka [1]: 6.32 ×10⁸ /M/min
- Kdiss [2]: 0.0107 s⁻¹
- T1/2 [3]: 71.4 s

Compound: O=C(CCCN1CCC(O)(c2ccc(Cl)cc2)CC1)c1ccccc1Cl
- Ka [1]: 3.16 ×10⁸ /M/min
- Kdiss [2]: 0.0185 s⁻¹
- T1/2 [3]: 45.6 s

Compound: O=C(CCCN1CCC(O)(c2ccccc2)CC1)c1ccccc1
- Ka [1]: 2.28 ×10⁷ /M/min
- Kdiss [2]: 0.0118 s⁻¹
- T1/2 [3]: 58.8 s

Compound: OC1(c2ccc(Cl)cc2)CCN(CCCCc2ccc(F)cc2)CC1
- Ka [1]: 1.57 ×10⁸ /M/min
- Kdiss [2]: 0.0185 s⁻¹
- T1/2 [3]: 37.8 s

Compound: O=C(CCCN1CCC(O)(c2ccc(Cl)cc2Cl)CC1)c1ccc(F)cc1
- Ka [1]: 2.87 ×10⁸ /M/min
- Kdiss [2]: 0.0117 s⁻¹
- T1/2 [3]: 69 s

Compound: O=C(CCCN1CCC(O)(c2ccc(F)cc2)CC1)c1ccc(F)cc1
- Ka [1]: 2.61 ×10⁸ /M/min
- Kdiss [2]: 0.013 s⁻¹
- T1/2 [3]: 55.2 s

Compound: OC1(c2ccc(Cl)cc2)CCN(CC#Cc2ccc(F)cc2)CC1
- Ka [1]: 3.37 ×10⁶ /M/min
- Kdiss [2]: 0.016 s⁻¹
- T1/2 [3]: 46.2 s

Compound: OC1(c2ccc(Cl)cc2)CCN(CC[C@H]2C[C@@H]2c2ccc(F)cc2)CC1 (racemic)
- Ka [1]: 6.07 ×10⁸ /M/min
- Kdiss [2]: 0.0153 s⁻¹
- T1/2 [3]: 49.2 s

Compound: O=C(CCCN1CCC(O)(c2ccc(Cl)cc2)CC1)c1cc(F)ccc1F
- Ka [1]: 1.13 to 1.15 ×10⁷ /M/min
- Kdiss [2]: 0.019 to 0.0248 s⁻¹
- T1/2 [3]: 34.8 to 37.8 s

Compound: O=C(CCCN1CCC(O)(c2ccc(F)cc2)CC1)c1ccc(Cl)cc1
- Ka [1]: 4.17 ×10⁷ /M/min
- Kdiss [2]: 0.0128 s⁻¹
- T1/2 [3]: 54.6 s

Compound: O=C(CCCN1CCC(O)(c2ccc(Cl)cc2)CC1)c1ccc(F)c(F)c1
- Kdiss [2]: 0.0172 s⁻¹
- T1/2 [3]: 45 s

Compound: O=C(CCCN1CCC(O)(c2cccc(Cl)c2Cl)CC1)c1ccc(F)cc1
- Ka [1]: 2.2 ×10⁹ /M/min
- Kdiss [2]: 0.005 s⁻¹
- T1/2 [3]: 137 s

Compound: O=C(CCCN1CCC(O)(c2cc(Cl)ccc2Cl)CC1)c1ccc(F)cc1
- Ka [1]: 5.29 ×10⁸ /M/min
- Kdiss [2]: 0.00933 s⁻¹
- T1/2 [3]: 76.2 s

Compound: O=C(CCCN1CCC(O)(c2ccc(Cl)cc2)CC1)c1ccc(Cl)cc1
- Ka [1]: 1.38 ×10⁸ /M/min
- Kdiss [2]: 0.0117 s⁻¹
- T1/2 [3]: 60 s

Compound: O=C(CCCN1CC=C(c2ccc(Cl)cc2)CC1)c1ccc(F)cc1
- Ka [1]: 6.52 ×10⁷ /M/min
- Kdiss [2]: 0.0108 s⁻¹
- T1/2 [3]: 65.4 s

Compound: OC1(c2ccc(Cl)cc2)CCN(CC/C=C/c2ccc(F)cc2)CC1
- Ka [1]: 6.39 ×10⁷ /M/min
- Kdiss [2]: 0.0127 s⁻¹
- T1/2 [3]: 44.4 s

Compound: O=C(CCCN1CCC(O)(c2ccc(C(F)(F)F)cc2)CC1)c1ccc(F)cc1
- Ka [1]: 1.36 ×10⁹ /M/min
- Kdiss [2]: 0.0103 s⁻¹
- T1/2 [3]: 67.2 s

Compound: Cc1ccc(C2(O)CCN(CCCC(=O)c3ccc(F)cc3)CC2)cc1
- Ka [1]: 1 ×10⁹ /M/min
- Kdiss [2]: 0.0163 s⁻¹
- T1/2 [3]: 43.8 s

Compound: O=C(CCCN1CCC(O)(c2ccc(Cl)cc2)CC1)c1c(F)cccc1F
- Ka [1]: 1.84 ×10⁷ /M/min
- Kdiss [2]: 0.0182 s⁻¹
- T1/2 [3]: 39.6 s

Compound: OC(CCCN1CCC(O)(c2ccc(Cl)cc2)CC1)c1ccc(F)cc1 (centres undefined)
- Ka [1]: 6.19 ×10⁶ /M/min
- Kdiss [2]: 0.0095 s⁻¹
- T1/2 [3]: 75 s

Compound: O=C(CCCN1CCC(O)(c2ccc(Cl)cc2)CC1)c1cccc(F)c1F
- Ka [1]: 3.01 to 3.24 ×10⁷ /M/min
- Kdiss [2]: 0.0215 to 0.0283 s⁻¹
- T1/2 [3]: 24.6 to 36 s

Compound: CN(C)c1ccc(C2(O)CCN(CCCC(=O)c3ccc(F)cc3)CC2)cc1
- Ka [1]: 1.64 ×10⁸ /M/min
- Kdiss [2]: 0.0208 s⁻¹
- T1/2 [3]: 33.6 s

Compound: O=C(CCCN1CCC(O)(c2ccc(Cl)cc2)CC1)c1cccc(F)c1
- Ka [1]: 2.55 to 2.64 ×10⁷ /M/min
- Kdiss [2]: 0.016 to 0.018 s⁻¹
- T1/2 [3]: 42 to 45.6 s
